These results are taken from paper PMC9727179, “Acorane sesquiterpenes from the deep-sea derived Penicillium bilaiae fungus with anti-neuroinflammatory effects” (Frontiers in Chemistry, 2022).

The subject of series [1] is NO production in LPS-induced BV-2 cells. The series is described as follows: Inhibition of NO production in LPS-induced BV-2 cells (Griess method). The conditions noted are these: for IC50: LPS (1 μg/ml)-induced BV-2 cells, 24 h, read-out: IC50, inhibitory effect against NO production. The format is cell-based, murine. On the procedure:
In the presence or absence of LPS (1 μg/ml), murine BV-2 microglial cells were treated with compounds with different concentrations for 24 h. The same volume of Griess reagent was added to the supernatant of culture media. The Griess method was used to determine the NO levels under the absorbance at 540 nm measured using a microplate spectrophotometer (Thermo Scientifics, United States). Based on the established calibration curve of standard sodium nitrite solutions, the content of nitrite was calculated.
A general note: Nitrite, measured by Griess reagent, commonly stands in for NO production.

Series [2] is described as follows: Cell viability / cytotoxicity, MTT method. The conditions noted are these: mouse, BV-2 microglial cells, BV-2 cells. The format is cell-based, murine. The procedure: (§1) Murine BV-2 microglial cells were obtained from the Cell Culture Center of Institute of Basic Medical Sciences, Chinese Academy of Medical Sciences, and the cells were cultured in Dulbecco’s modified Eagle’s medium (Gibco) together with 10% (v/v) fetal bovine serum (HyClone) within a 5% CO2 incubator at 37°C. The MTT method was utilized to detect the cytotoxicity of the compound to read the absorbance at 570 nm using a microplate spectrophotometer (Thermo Scientifics, United States).

For a further series, the system named is BV-2 microglial cells. The series is described as follows: Cell viability / cytotoxicity, MTT method. The format is cell-based, murine. As to conditions: BV-2 cells. On the procedure:
as §1
(In general: Formazan colour is commonly taken as a measure of viable cells.)

The subject of a further series is NF-κB p65. The series is described as follows: Nuclear translocation of NF-κB p65 in LPS-stimulated BV-2 cells (immunofluorescence and Western blot). The format is cell-based, murine. The conditions noted are these: LPS (1 μg/ml)-stimulated BV-2 cells, 2 μM, 3 h, immunofluorescence and WB. The procedure: (§2) In 12-well plates, BV-2 cells were seeded to incubate with LPS (1 μg/ml) for 1 h. Each compound was incubated with BV-2 cells for 16 h. Phenylmethylsulfonyl fluoride-protease inhibitor cocktail as the cell extraction buffer was used to lyse cells. Nuclear and cytosolic extraction kits were applied for the collection of the cytosolic and nuclear extracts. Upon SDS-PAGE, proteins were purified and transferred to PVDF membranes (Millipore). After treatment with 5% (W/V) skim milk in TBST (Tris-buffered saline with 0.1% Tween 20) for 1 h, the membranes were maintained at 4°C overnight. The membrane was washed and then incubated with a secondary antibody at 20°C for 1 h. The target proteins were visualized under a chemiluminescence (ECL) detection system, and the relative optical densities were analyzed by Image Master™ 2D Elite software.
Prior to LPS induction, BV-2 cells were pretreated by the compound (2 μM) in DMSO. Cells were seeded in glass coverslips, which were then treated with cold 4% paraformaldehyde and 0.2% Triton X-100 (in PBS). […] Images were detected using a fluorescence microscope (OLYMPUS IX83).
FIGURE 8 Effect of analog 18 on the nuclear translocation of NF-κB p65 in LPS-stimulated BV-2 cells. […] (B) BV-2 cells were stimulated with LPS (1 μg/ml) in the absence or presence of 18 (2 μM) for 3 h, and NF-kB p65 levels in the nucleus and cytoplasm were determined by Western blot. […]
Background: A western blot detects proteins with antibodies after separation by electrophoresis.

The subject of series [3] is phosphorylation of JNK, ERK and p38 (MAPK signaling pathway). The series is described as follows: MAPK phosphorylation in LPS-stimulated BV-2 cells. The format is cell-based, murine. The conditions noted are these: LPS-stimulated BV-2 microglial cells. On the procedure: as §2
Series [4] deals with COX-2. The series is described as follows: COX-2 mRNA level. The format is cell-based.
The subject of series [5] is COX-2. The series is described as follows: Western blot of COX-2 protein expression in LPS-induced BV-2 cells. As to conditions: LPS (1 μg/mL)-induced BV-2 cells, different concentrations, 24 h. The format is cell-based, murine. The procedure:
as §2
(§3) FIGURE 6 Analog 18 inhibited the expression of iNOS and COX-2 in LPS-induced BV-2 cells. Cells were stimulated by 1 μg/mL LPS with or without 18 for 24 h. (A) The protein expressions o f iNOS treated by different concentrations of 18 were determined by Western blot assay, (B) the expressions of COX-2 t reated by different concentrations of 18 were determined by Western blot assay. […]

The test system of series [6] is iNOS. The series is described as follows: Western blot of iNOS protein expression in LPS-induced BV-2 cells. The format is cell-based, murine. The conditions noted are these: LPS (1 μg/mL)-induced BV-2 cells, different concentrations, 24 h. The procedure:
as §2, §3

Series [7] concerns iNOS. The series is described as follows: iNOS mRNA level. The format is cell-based.

Entries after “also recorded” stand apart in the source; their conditions may differ. Read-outs that look alike come from different tables or passages of the source.

As for `CC1=CCC23CC1OC(C)(CO)C2C(O)CC3C` (centres unmarked) [Compound 1, Bilaiaeacorenol A], in series [1] (Mus musculus, BV-2, 24 h), the IC50 is more than 10 µM. Further, the CC50 in series [2] is more than 100 µM.
Molecule `CC1CC(O)C2C(C)(O)CC3CC12CC=C3CO` (centres unmarked) [Compound 2, Bilaiaeacorenol B] showed a melting point of 108 to 110 °C. Moreover, the half-maximal inhibitory concentration (IC50) in series [1] (Mus musculus, BV-2, 24 h) stood at 6.1 ± 2.3 µM. For the same molecule, in series [2], the 50% cytotoxic concentration (CC50) was more than 100 µM.
Consider `CC1=CCC2(CC1O)C(C)CC(O)C2C(C)(O)CO` (centres unmarked) [Compound 3, Bilaiaeacorenol C], for which, in [1] (Mus musculus, BV-2, 24 h), the IC50 was 5.3 ± 1.1 µM. The same molecule gave a CC50 in [2] of more than 100 µM.
Taken in the same sequence, the figures for `CC1=CCC2(CC1O)C(C)CC(O)C2C(C)CO` (centres unmarked) [Compound 4, Bilaiaeacorenol D] were 7.6 ± 1.2 µM and more than 100 µM.
Turning to `C=C(C)C1C(O)CC(C)C12CC=C(C)C(O)C2` (centres unmarked) [Compound 5, Bilaiaeacorenol E], in [1] (Mus musculus, BV-2, 24 h), the IC50 was more than 10 µM. This molecule also gave a 50% cytotoxic concentration (CC50) in [2] of more than 100 µM.
In the case of `C=C(C)C1C(O)CC(C)C12CC=C(C)C(O)C2` (centres unmarked) [Compound 6, Bilaiaeacorenol F], the IC50 in series [1] is more than 10 µM. The CC50 with BV-2 microglial cells is more than 100 µM.
As for `C=C(C)C1C(O)CC(C)C12CC=C(CO)C(O)C2` (centres unmarked) [Compound 7, Bilaiaeacorenol G], the IC50 in series [1] (Mus musculus, BV-2, 24 h) was more than 10 µM. Besides, the CC50 in series [2] was more than 100 µM.
`C=C(C)C1C(O)CC(C)C12CC(O)C(C)=CC2O` (centres unmarked) [Compound 8, Bilaiaeacorenol H]: the IC50 in series [1] (Mus musculus, BV-2, 24 h) is more than 10 µM. For the same molecule, the half-maximal cytotoxic concentration (CC50) in [2] is more than 100 µM.
`C=C(C)C1C(OC(C)=O)CC(C)C12CC(O)C(C)=CC2O` (centres unmarked) [Compound 9, Bilaiaeacorenol I]: in series [1] (Mus musculus), the IC50 was 3.5 ± 0.1 µM. Further, the cytotoxic concentration (CC50) in series [2] was more than 100 µM.
As for `C=C(CO)C1C(OC(C)=O)CC(C)C12CC=C(C)C(O)C2` (centres unmarked) [Compound 10, Bilaiaeacorenol J], the half-maximal inhibitory concentration (IC50) in series [1] (Mus musculus, BV-2, 24 h) is more than 10 µM. The CC50 in series [2] was more than 100 µM.
Taken in the same sequence, the figures for `C=C(C)C1C(O)CC(C)C12C=CC(C)(O)C(O)C2` (centres unmarked) [Compound 11, Bilaiaeacorenol K] were 8.7 ± 2.1 µM and more than 100 µM.
Taken in the same sequence, the figures for `C=C(C)C1C(O)CC(C)C12CCC(CO)C(O)C2` (centres unmarked) [Compound 12, Bilaiaeacorenol L] were more than 10 µM and more than 100 µM.
`C=C(C)C1C(OC(C)=O)CC(C)C12CCC(CO)C(O)C2` (centres unmarked) [Compound 13, Bilaiaeacorenol M]: the IC50 in series [1] (Mus musculus, BV-2, 24 h) amounted to 0.53 ± 0.47 µM. The CC50 in series [2] was more than 100 µM.
On to `C=C(C)C1C(O)CC(C)C12CCC(CO)C(O)C2` (centres unmarked) [Compound 14, Bilaiaeacorenol N], for which the half-inhibitory concentration (IC50) in series [1] (Mus musculus) is more than 10 µM. The 50% cytotoxic concentration (CC50) in the series on BV-2 microglial cells was more than 100 µM.
With `C=C(C)C1C(OC(C)=O)CC(C)C12CC(O)C(C)(O)C(O)C2` (centres unmarked) [Compound 15, Bilaiaeacorenol O], the IC50 in series [1] (Mus musculus) is 3.7 ± 0.1 µM. Moreover, the CC50 in [2] was more than 100 µM.
Take `C=C(C)C1C(O)CC(C)C12CCC(CO)C(O)C2` (centres unmarked) [Compound 16, Bilaiaeacorenol P]: the half-inhibitory concentration (IC50) in series [1] turned out to be 7.5 ± 0.2 µM. The same molecule displayed a 50% cytotoxic concentration (CC50) in the series with BV-2 microglial cells of more than 100 µM.
Turning to `C=C(C)C1C(O)CC(C)C12CC(=O)C(C)C(O)C2` (centres unmarked) [Compound 17, Bilaiaeacorenol Q], in series [1] (Mus musculus, BV-2, 24 h), the IC50 was more than 10 µM. Further, in [2], the CC50 was more than 100 µM.
With `C=C(C)C1C(O)CC(C)C12CCC(C(=O)O)C(O)C2` (centres unmarked) [Compound 18, Bilaiaeacorenol R], in the series on NF-κB p65, the “p65 level in the nucleus” value is listed as “significantly downregulated”. The “phosphorylation of JNK, ERK and p38” value in series [3] is “slightly affected; also recorded: Ineffective”. The “COX-2 mRNA level” value in the series with COX-2 [4] was “marked reductions”. In addition, the “COX-2 level (protein)” value in the series on COX-2 [5] was “decreased”. In addition, the “reduction against NO production” value in [1] (LPS-induced BV-2 cells, dose-dependent manner) is “efficient reduction”. Moreover, the concentration for half-maximal inhibition (IC50) in [1] (Mus musculus, BV-2, 24 h) came to 0.5 ± 1.2 µM. In addition, in the series on iNOS [6], the “iNOS level (protein)” value is listed as “decreased”. Also, the “iNOS mRNA level” value in the series with iNOS [7] was “marked reductions”. Also, in series [2], the CC50 was more than 100 µM.
Consider `[H]/N=C(/NC)NCCC[C@H](N)C(=O)O` [L-NMMA, NG-monomethyl-L-arginine, reference compound], for which, in series [1] (Mus musculus, BV-2, 24 h), the half-inhibitory concentration (IC50) was 6.8 ± 4.2 µM. The CC50 in series [2] was more than 100 µM.
For adametacorenol A [Compound 19], in series [1], the half-maximal inhibitory concentration (IC50) is more than 10 µM. This molecule yielded a half-maximal cytotoxic concentration (CC50) with BV-2 microglial cells of more than 100 µM.
The like results for adametacorenol B [Compound 20] were, in that order, more than 10 µM and more than 100 µM.

By IC50 is commonly meant the concentration needed to halve the response being measured. Broadly, the CC50 is the concentration at which the toxic effect on the cells reaches its halfway point. Low readings indicate harm at low concentration, high ones better tolerance by the cells. Broadly, the melting point is the temperature of the solid-liquid transition.
